“And” between values parts separate entries of the source, which are not always exact repeats. Equal entries are not always repeated. Inconclusive results and toxic doses are left out.
System: P388 leukemia ip, CD2F1 mice, survival T/C
Experiment: NCI In Vivo Anticancer Drug Screen. Data for tumor model P388 Leukemia (intraperitoneal) in CD2F1 (CDF1) mice
Conditions: endpoint: median survival time, higher = longer survival
Summary of the method: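 Mice carrying the transplanted tumor received test compound or vehicle. Survival was recorded in each group, and the value is the treated-group measurement divided by that of the vehicle-treated control group.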

Cc1c2ccncc2c(C)c2c1[nH]c1ccccc12
T/C (dose: 0.31 mg/kg/injection, schedule: Q04DX003 (iv), vehicle: water): 99 % of control
T/C (dose: 0.63 mg/kg/injection, schedule: Q04DX003 (iv), vehicle: water): 107 % of control
T/C (dose: 1.25 mg/kg/injection, schedule: Q04DX003 (iv), vehicle: water): 99 % of control
T/C (dose: 1.56 mg/kg/injection, schedule: Q04DX003 (ip), vehicle: distilled water + Tween-80): 92 % of control
T/C (dose: 2.5 mg/kg/injection, schedule: Q04DX003 (ip), vehicle: water): 100 % of control
T/C (dose: 2.5 mg/kg/injection, schedule: Q04DX003 (iv), vehicle: distilled water + Tween-80): 107 % of control
T/C (dose: 2.5 mg/kg/injection, schedule: Q04DX003 (iv), vehicle: water): 94 % of control
T/C (dose: 3.12 mg/kg/injection, schedule: Q04DX003 (ip), vehicle: distilled water + Tween-80): 100 % of control
T/C (dose: 3.13 mg/kg/injection, schedule: Q01DX009 (ip), vehicle: saline with Tween-80): 154 % of control
T/C (dose: 3.89 mg/kg/injection, schedule: Q04DX003 (ip), vehicle: clinical formulation): 111 % of control
T/C (dose: 5.0 mg/kg/injection, schedule: Q01DX005 (ip), vehicle: Klucel (hydroxypropylcellulose) (HPC)): 156 % of control
T/C (dose: 5.0 mg/kg/injection, schedule: Q04DX003 (ip), vehicle: distilled water + Tween-80): 110 % of control
T/C (dose: 5.0 mg/kg/injection, schedule: Q04DX003 (ip), vehicle: water): 106 % of control and 110 % of control
T/C (dose: 5.0 mg/kg/injection, schedule: Q04DX003 (iv), vehicle: distilled water + Tween-80): 100 % of control
T/C (dose: 5.0 mg/kg/injection, schedule: Q04DX003 (iv), vehicle: water): 108 % of control
T/C (dose: 6.25 mg/kg/injection, schedule: Q01DX009 (ip), vehicle: saline with Tween-80): 181 % of control
T/C (dose: 6.25 mg/kg/injection, schedule: Q04DX003 (ip), vehicle: clinical formulation): 118 % of control and 119 % of control
T/C (dose: 6.25 mg/kg/injection, schedule: Q04DX003 (ip), vehicle: distilled water + Tween-80): 100 % of control and 121 % of control
T/C (dose: 6.25 mg/kg/injection, schedule: Q04DX003 (ip), vehicle: saline with Tween-80): 161 % of control
T/C (dose: 6.25 mg/kg/injection, schedule: Q04DX003 (ip), vehicle: saline): 112 % of control
T/C (dose: 6.48 mg/kg/injection, schedule: Q04DX003 (ip), vehicle: clinical formulation): 108 % of control
T/C (dose: 8.0 mg/kg/injection, schedule: Q01DX005 (ip), vehicle: saline with Tween-80): 160 % of control
T/C (dose: 8.0 mg/kg/injection, schedule: Q01DX005 (iv), vehicle: saline with Tween-80): 115 % of control
T/C (dose: 10.0 mg/kg/injection, schedule: Q01DX005 (ip), vehicle: Klucel (hydroxypropylcellulose) (HPC)): 153 % of control
T/C (dose: 10.0 mg/kg/injection, schedule: Q01DX005 (ip), vehicle: saline with Tween-80): 166 % of control
T/C (dose: 10.0 mg/kg/injection, schedule: Q04DX003 (ip), vehicle: distilled water + Tween-80): 118 % of control
T/C (dose: 10.0 mg/kg/injection, schedule: Q04DX003 (ip), vehicle: water): 112 % of control
T/C (dose: 10.0 mg/kg/injection, schedule: Q04DX003 (iv), vehicle: distilled water + Tween-80): 124 % of control
T/C (dose: 10.0 mg/kg/injection, schedule: Q04DX003 (iv), vehicle: water): 112 % of control
T/C (dose: 10.8 mg/kg/injection, schedule: Q04DX003 (ip), vehicle: clinical formulation): 110 % of control
T/C (dose: 12.5 mg/kg/injection, schedule: Q01DX009 (ip), vehicle: saline with Tween-80): 195 % of control and 204 % of control
T/C (dose: 12.5 mg/kg/injection, schedule: Q04DX002 (ip), vehicle: Klucel (hydroxypropylcellulose) (HPC)): 150 % of control
T/C (dose: 12.5 mg/kg/injection, schedule: Q04DX003 (ip), vehicle: alkali diluted with water): 164 % of control
T/C (dose: 13.0 mg/kg/injection, schedule: Q04DX003 (ip), vehicle: water): 123 % of control
T/C (dose: 16.0 mg/kg/injection, schedule: Q01DX005 (ip), vehicle: saline with Tween-80): 189 % of control
T/C (dose: 16.0 mg/kg/injection, schedule: Q01DX005 (iv), vehicle: saline with Tween-80): 117 % of control
T/C (dose: 16.0 mg/kg/injection, schedule: Q01DX005 (oral), vehicle: saline with Tween-80): 155 % of control
T/C (dose: 18.0 mg/kg/injection, schedule: Q04DX003 (ip), vehicle: clinical formulation): 110 % of control
T/C (dose: 20.0 mg/kg/injection, schedule: Q01DX005 (ip), vehicle: Klucel (hydroxypropylcellulose) (HPC)): 176 % of control and 177 % of control
T/C (dose: 20.0 mg/kg/injection, schedule: Q01DX005 (ip), vehicle: saline with Tween-80): 200 % of control
T/C (dose: 20.0 mg/kg/injection, schedule: Q01DX005 (iv), vehicle: saline with Tween-80): 111 % of control
T/C (dose: 20.0 mg/kg/injection, schedule: Q04DX003 (ip), vehicle: distilled water + Tween-80): 157 % of control
T/C (dose: 20.0 mg/kg/injection, schedule: Q04DX003 (ip), vehicle: water): 163 % of control
T/C (dose: 21.6 mg/kg/injection, schedule: Q04DX002 (ip), vehicle: Klucel (hydroxypropylcellulose) (HPC)): 171 % of control
T/C (dose: 21.6 mg/kg/injection, schedule: Q04DX003 (ip), vehicle: water): 150 % of control
T/C (dose: 25.0 mg/kg/injection, schedule: Q01DX009 (ip), vehicle: saline with Tween-80): 204 % of control
T/C (dose: 25.0 mg/kg/injection, schedule: Q04DX002 (ip), vehicle: Klucel (hydroxypropylcellulose) (HPC)): 153 % of control
T/C (dose: 25.0 mg/kg/injection, schedule: Q04DX003 (ip), vehicle: alkali diluted with water): 183 % of control
T/C (dose: 25.0 mg/kg/injection, schedule: Q04DX003 (ip), vehicle: clinical formulation): 178 % of control and 180 % of control
T/C (dose: 25.0 mg/kg/injection, schedule: Q04DX003 (ip), vehicle: water): 163 % of control
T/C (dose: 30.0 mg/kg/injection, schedule: Q04DX003 (ip), vehicle: clinical formulation): 198 % of control
T/C (dose: 32.0 mg/kg/injection, schedule: Q01DX005 (ip), vehicle: saline with Tween-80): 207 % of control
T/C (dose: 32.0 mg/kg/injection, schedule: Q01DX005 (iv), vehicle: saline with Tween-80): 162 % of control
T/C (dose: 32.0 mg/kg/injection, schedule: Q01DX005 (oral), vehicle: saline with Tween-80): 186 % of control
T/C (dose: 36.0 mg/kg/injection, schedule: Q04DX002 (ip), vehicle: Klucel (hydroxypropylcellulose) (HPC)): 191 % of control
T/C (dose: 36.0 mg/kg/injection, schedule: Q04DX002 (ip), vehicle: saline with Tween-80): 158 % of control
T/C (dose: 36.0 mg/kg/injection, schedule: Q04DX003 (ip), vehicle: water): 176 % of control
T/C (dose: 40.0 mg/kg/injection, schedule: Q01DX005 (ip), vehicle: Klucel (hydroxypropylcellulose) (HPC)): 202 % of control and 90 % of control
T/C (dose: 40.0 mg/kg/injection, schedule: Q01DX005 (ip), vehicle: saline with Tween-80): 227 % of control
T/C (dose: 40.0 mg/kg/injection, schedule: Q04DX003 (ip), vehicle: distilled water + Tween-80): 193 % of control
T/C (dose: 40.0 mg/kg/injection, schedule: Q04DX003 (ip), vehicle: water): 117 % of control
T/C (dose: 43.2 mg/kg/injection, schedule: Q04DX002 (ip), vehicle: saline with Tween-80): 176 % of control
T/C (dose: 50.0 mg/kg/injection, schedule: Q01DX009 (ip), vehicle: saline with Tween-80): 86 % of control
T/C (dose: 50.0 mg/kg/injection, schedule: Q04DX002 (ip), vehicle: Klucel (hydroxypropylcellulose) (HPC)): 168 % of control
T/C (dose: 50.0 mg/kg/injection, schedule: Q04DX003 (ip), vehicle: alkali diluted with water): 221 % of control
T/C (dose: 50.0 mg/kg/injection, schedule: Q04DX003 (ip), vehicle: clinical formulation): 181 % of control
T/C (dose: 50.0 mg/kg/injection, schedule: Q04DX003 (ip), vehicle: water): 167 % of control
T/C (dose: 60.0 mg/kg/injection, schedule: Q04DX002 (ip), vehicle: Klucel (hydroxypropylcellulose) (HPC)): 198 % of control
T/C (dose: 60.0 mg/kg/injection, schedule: Q04DX002 (ip), vehicle: saline with Tween-80): 161 % of control
T/C (dose: 60.0 mg/kg/injection, schedule: Q04DX003 (ip), vehicle: water): 219 % of control
T/C (dose: 72.0 mg/kg/injection, schedule: Q04DX002 (ip), vehicle: saline with Tween-80): 166 % of control and 199 % of control
T/C (dose: 80.0 mg/kg/injection, schedule: Q04DX003 (ip), vehicle: distilled water + Tween-80): 190 % of control and 254 % of control
T/C (dose: 90.0 mg/kg/injection, schedule: Q04DX002 (ip), vehicle: saline with Tween-80): 185 % of control and 190 % of control
T/C (dose: 100.0 mg/kg/injection, schedule: Q04DX002 (ip), vehicle: Klucel (hydroxypropylcellulose) (HPC)): 220 % of control and 230 % of control
T/C (dose: 100.0 mg/kg/injection, schedule: Q04DX003 (ip), vehicle: alkali diluted with water): 219 % of control
T/C (dose: 100.0 mg/kg/injection, schedule: Q04DX003 (ip), vehicle: water): 203 % of control
T/C (dose: 120.0 mg/kg/injection, schedule: Q04DX002 (ip), vehicle: saline with Tween-80): 157 % of control and 218 % of control
T/C (dose: 134.0 mg/kg/injection, schedule: Q04DX002 (ip), vehicle: saline with Tween-80): 211 % of control and 214 % of control
T/C (dose: 167.0 mg/kg/injection, schedule: Q04DX002 (ip), vehicle: Klucel (hydroxypropylcellulose) (HPC)): 207 % of control
T/C (dose: 167.0 mg/kg/injection, schedule: Q04DX002 (ip), vehicle: saline with Tween-80): 158 % of control
T/C (dose: 200.0 mg/kg/injection, schedule: Q04DX002 (ip), vehicle: Klucel (hydroxypropylcellulose) (HPC)): 88 % of control
T/C (dose: 200.0 mg/kg/injection, schedule: Q04DX003 (ip), vehicle: alkali diluted with water): 100 % of control
T/C (dose: 300.0 mg/kg/injection, schedule: Q04DX002 (ip), vehicle: saline with Tween-80): 165 % of control

From PubChem BioAssay AID330 (DTP/NCI, 2004)
